# pEC50: −log10 of the molar value.
# Key:
# Assay type in all cases: cell-based
# [1] = target: T1, LXRα ligand-binding domain (LBD) (Homo sapiens, UniProt Q13133); assay: LXR Gal4 reporter transient transfection assay (M2H), Gal4α LBD; details: HEK293 cells; read-out: M2H Gal4α LBD activity range (EC50)
# T1 construct: expressed in transfected cells; host or cells: HEK293
# T1 sequence (Q13133 155-447): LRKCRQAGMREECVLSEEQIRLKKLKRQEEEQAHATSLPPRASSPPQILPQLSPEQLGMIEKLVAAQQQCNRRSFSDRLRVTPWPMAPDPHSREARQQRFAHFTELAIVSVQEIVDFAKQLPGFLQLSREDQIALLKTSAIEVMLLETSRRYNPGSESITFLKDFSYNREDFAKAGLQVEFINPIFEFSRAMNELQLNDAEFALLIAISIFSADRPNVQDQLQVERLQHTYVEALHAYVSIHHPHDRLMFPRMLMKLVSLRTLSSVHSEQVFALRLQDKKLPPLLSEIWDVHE
# Method: The tested compounds were usually dissolved, tested and stored as 20 mM stock solutions in DMSO. Since sulfonyl acetic acid derivatives tend to decarboxylate under these conditions, these stock solutions were prepared, tested and stored as 20 mM DMSO stock solutions containing 100 mM trifluoroacetic acid (5 equivalents). Sulfonyl acetic acid derivatives are shelf stable as solid at rt for long time as reported by Griesbrecht et al. (Synlett 2010:374) or Faucher et al. (J. Med. Chem. 2004; 47:18).
# LXR Gal4 Reporter Transient Transfection Assays
# LXRα and LXRβ activity status was determined via detection of interaction with coactivator and corepressor proteins in mammalian two-hybrid experiments (M2H). For this, via transient transfection the full length (FL) proteins of LXRα (amino acids 1-447; NP005684; SEQ ID NO:7) or LXRβ-(amino acids 1-461; NP009052; SEQ ID NO:8) or the ligand-binding domains (LBD) of LXRα (amino acids 155-447 SEQ ID NO:3) or LXRβ (amino acids 156-461; SEQ ID NO:4) were expressed from pCMV-AD (Stratagene) as fusions to the transcriptional activation domain of NFkB. As cofactors, domains of either the steroid receptor coactivator 1 (SRC1; amino acids 552-887; SEQ ID NO:5) or of the corepressor NCoR (amino acids 1903-2312 SEQ ID NO:6) were expressed as fusions to the DNA binding domain of the yeast transcription factor GAL4 (from pCMV-BD; Stratagene). Interaction was monitored via activation of a coexpressed Firefly Luciferase Reporter gene under control of a promoter containing repetitive GAL4 response elements (vector pFRLuc; Stratagene). Transfection efficiency was controlled via cotransfection of constitutively active pRL-CMV Renilla reniformis luciferase reporter (Promega). HEK293 cells were grown in minimum essential medium (MEM) with 2 mM L-glutamine and Earle's balanced salt solution supplemented with 8.3% fetal bovine serum, 0.1 mM non-essential amino acids, 1 mM sodium pyruvate, at 37° C. in 5% CO2. 3.5×10^4 cells/well were plated in 96-well cell culture plates in growth medium supplemented with 8.3% fetal bovine serum for 16-20 h to ˜90% confluency. For transfection, medium was taken off and LXR and cofactor expressing plasmids as well as the reporter plasmids are added in 30 μL OPTIMEM/well including polyethylene-imine (PEI) as vehicle. Typical amounts of plasmids transfected/well: pCMV-AD-LXR (5 ng), pCMV-BD-cofactor (5 ng), pFR-Luc (100 ng), pRL-CMV (0.5 ng). Compound stocks were prepared in DMSO, prediluted in MEM to a total volume of 120 μL, and added 4 h after addition of the transfection mixture (final vehicle concentration not exceeding 0.2%). Cells were incubated for additional 16 h, lysed for 10 min in 1× Passive Lysis Buffer (Promega) and Firefly and Renilla luciferase activities were measured sequentially in the same cell extract using buffers containing D-luciferine and coelenterazine, respectively. Measurements of luminescence were done in a BMG-Iuminometer.
# LXRα full length (FL) = target: T2, LXRα full length (FL) (Homo sapiens, UniProt Q13133); assay: LXR Gal4 reporter transient transfection assay (M2H), Gal4α FL; details: HEK293 cells; read-out: M2H Gal4α FL activity range (EC50)
# T2 construct: the full length (FL) proteins of LXRα (amino acids 1-447); NP005684; expressed in transfected cells; host or cells: HEK293
# T2 sequence (Q13133 1-447): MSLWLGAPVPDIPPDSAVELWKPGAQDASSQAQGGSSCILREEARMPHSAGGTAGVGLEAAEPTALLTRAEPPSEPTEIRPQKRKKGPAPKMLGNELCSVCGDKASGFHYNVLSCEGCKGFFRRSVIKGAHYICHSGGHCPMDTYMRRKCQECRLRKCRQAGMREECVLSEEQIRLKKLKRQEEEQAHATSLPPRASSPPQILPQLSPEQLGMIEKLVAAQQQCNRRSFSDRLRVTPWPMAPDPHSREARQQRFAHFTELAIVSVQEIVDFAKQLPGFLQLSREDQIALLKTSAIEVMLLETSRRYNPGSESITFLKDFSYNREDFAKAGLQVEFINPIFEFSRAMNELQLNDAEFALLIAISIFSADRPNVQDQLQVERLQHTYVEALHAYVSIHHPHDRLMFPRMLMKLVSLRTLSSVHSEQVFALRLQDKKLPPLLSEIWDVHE
# How it was run: (§1)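 Mammalian two-hybrid in HEK293 cells transiently transfected with LXRα/β full-length or LBD fused to NFkB activation domain, plus GAL4-DBD fusions of SRC1 coactivator or NCoR corepressor domains and a GAL4-responsive firefly luciferase reporter. Compounds added 4 h post-transfection (vehicle ≤0.2% DMSO), 16 h incubation; firefly luciferase normalized to Renilla.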
# LXRβ full length (FL) = target: T3, LXRβ full length (FL) (Homo sapiens, UniProt P55055, DUP175-175); assay: LXR Gal4 reporter transient transfection assay (M2H), Gal4β FL; details: HEK293 cells; read-out: M2H Gal4β FL activity range (EC50)
# T3 construct: the full length (FL) proteins of LXRα (amino acids 1-447); NP005684; NP009052; expressed in transfected cells; host or cells: HEK293
# T3 sequence (P55055 with tags, fused parts or gaps DUP175-175): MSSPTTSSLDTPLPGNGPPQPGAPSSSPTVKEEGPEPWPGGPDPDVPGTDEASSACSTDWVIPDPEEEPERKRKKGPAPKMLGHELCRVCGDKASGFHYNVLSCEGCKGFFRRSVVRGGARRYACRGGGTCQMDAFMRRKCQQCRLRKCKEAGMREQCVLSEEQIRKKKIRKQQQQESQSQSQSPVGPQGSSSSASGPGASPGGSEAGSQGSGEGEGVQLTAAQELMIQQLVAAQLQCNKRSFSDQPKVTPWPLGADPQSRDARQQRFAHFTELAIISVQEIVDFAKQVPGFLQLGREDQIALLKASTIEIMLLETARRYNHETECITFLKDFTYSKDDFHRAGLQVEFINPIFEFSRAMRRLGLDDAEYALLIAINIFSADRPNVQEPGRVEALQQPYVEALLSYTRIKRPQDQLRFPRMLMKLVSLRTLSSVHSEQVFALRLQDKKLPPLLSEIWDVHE
# How it was run: as §1
Compound,pEC50 [1],pEC50 (LXRα full length (FL)),pEC50 (LXRβ full length (FL))
Cc1cc(C)c(S(=O)(=O)N(Cc2ccc(-c3cccc(CC(=O)O)c3)cc2)C(C)c2ccc(C(F)(F)F)o2)c(C)c1 (stereo not shown) [2/2],> 7.00,> 7.00,> 7.00
Cc1cc(C)c(S(=O)(=O)N(Cc2ccc(-c3cccc(S(=O)(=O)C(C)(C)C(=O)O)c3)cc2)Cc2ccc(C(F)(F)F)o2)c(C)c1 [5/2],6.00 to 7.00,6.00 to 7.00,6.00 to 7.00
Cc1cc(C)c(S(=O)(=O)N(Cc2ccc(-c3cccc(C(C)(C)C(=O)O)c3)cc2)Cc2ccc(C(F)(F)F)o2)c(C)c1 [7/5],> 7.00,> 7.00,> 7.00
COc1cc(-c2cccc(C(C)(C)C(=O)O)c2)ccc1CN(Cc1ccc(C(F)(F)F)o1)S(=O)(=O)c1c(C)cc(C)cc1C [10/4],> 7.00,> 7.00,> 7.00
Cc1cc(C)c(S(=O)(=O)N(Cc2ccc(C(F)(F)F)o2)Cc2ccc(-c3cccc(C(C)(C)C(=O)O)c3)cc2Cl)c(C)c1 [10/5],> 7.00,> 7.00,> 7.00
Cc1ccc2ccccc2c1S(=O)(=O)N(Cc1ccc(-c2cccc(S(=O)(=O)CC(=O)O)c2)cc1)Cc1cccc(C(F)(F)F)c1 [11/19],–,6.00 to 7.00,6.00 to 7.00
"Cc1cc(C)c(S(=O)(=O)N(Cc2ccc(-c3cccc(CC(=O)O)c3)cc2)Cc2ccc(C(F)(F)F)o2)c(C)c1 [Example 2, 2-(4′-(((2,4,6-Trimethyl-N-((5-(trifluoromethyl)furan-2-yl)methyl)phenyl)sulfonamido)methyl)-[1,1′-biphenyl]-3-yl)acetic acid]",6.00 to 7.00,> 7.00,> 7.00
"Cc1cc(C)c(S(=O)(=O)N(Cc2ccc(-c3cccc(S(=O)(=O)CC(=O)O)c3)cc2)Cc2ccc(C(F)(F)F)o2)c(C)c1 [Example 5, 2-((4′-(((2,4,6-Trimethyl-N-((5-(trifluoromethyl)furan-2-yl)methyl)phenyl)sulfonamido)methyl)-[1,1′-biphenyl]-3-yl)sulfonyl)acetic acid]",–,5.00 to 6.00,6.00 to 7.00
"Cc1ccc2ccccc2c1S(=O)(=O)N(Cc1ccc(-c2cccc(C(C)(C)C(=O)O)c2)cc1)Cc1ccc(C(F)(F)F)o1 [Example 24, 2-Methyl-2-(4′-(((2-methyl-N-((5-(trifluoromethyl)furan-2-yl)methyl)naphthalene)-1-sulfonamido)methyl)-[1,1′-biphenyl]-3-yl)propanoic acid]",> 7.00,> 7.00,> 7.00
Cc1cc(C)c(S(=O)(=O)N(Cc2ccc(-c3cc(F)c(CO)c(S(C)(=O)=O)c3)cc2)Cc2ccc(C(F)(F)F)o2)c(C)c1 [Example C3/2],> 7.00,> 7.00,> 7.00
